In patent publication US20070219186A1, “Pyrazolo[1,5-A]pyrimidine derivatives and methods of use thereof” (priority 2006, published 2007):
Where two headings read alike, the source gives them in different places.

Molecular target: T1, human B-Raf (Homo sapiens, UniProt P15056)
T1 construct: Flag; GST; made in house; host or cells: Sf9 insect cells (B-Raf); E. coli (MEK1-GST)
Test: B-Raf Kinase to MEK1 ELISA
Format: biochemical
Details: for inhibition at 10 µM: read-out: % Inhib./10 uM
Description: TITLE: B-Raf Kinase to MEK1 ELISA
PURPOSE: To discover B-Raf Kinase inhibitors that can inhibit growth of tumor cells which contain oncogenic forms of Receptor Tyrosine Kinases or K-Ras, or B-Raf kinase.
Reagents: Flag/GST-tagged recombinant human B-Raf produced in Sf9 insect cells, human non-active Mek-1-GST (recombinant protein produced in E. coli); and a phospho-MEK1 specific poly-clonal Ab from Cell Signaling Technology (cat. #9121).
B-Raf1 Kinase Assay Procedure:
B-Raf-1 is used to phosphorylate GST-MEK1. MEK1 phosphorylation is measured by a phospho-specific antibody (from Cell Signaling Technology, cat. #9121) that detects phosphorylation of two serine residues at positions 217 and 221 on MEK1.
B-Raf Assay Stock Solutions:
1. Assay Dilution Buffer (ADB): 20 mM MOPS, pH 7.2, 25 mM β-glycerol phosphate, 5 mM EGTA, 1 mM sodium orthovanadate, 1 mM dithiothreitol.
2. Magnesium/ATP Cocktail: 200 μM cold ATP and 40 mM magnesium chloride in ADB.
3. Active Kinase: Active B-Raf: used at ˜20 ng per assay point.
4. Non-active GST-MEK1: Use at 100 nM (50 nM final).
6. Anti-GST Ab (Pharmacia)
7. Anti-rabbit Ab/Europium conjugate (Wallac)
1. Add 25 μl of ADB containing B-Raf and Mek per assay (i.e. per well of a 96 well plate)
2. Add 25 μl of 0.2 mM ATP and 40 mM magnesium chloride in ADB.
3. Incubate for 60 minutes at RT in a shaking incubator.
4. Transfer this mixture to an anti-GST Ab coated 96 well plate (Nunc Immunosorb plates coated o/n with a-GST.
5. Incubate for 60 minutes at 30° C. in a shaking incubator
6. Wash 3× with TBST, add Anti-Phospho MEK1 (1:1000)
7. Incubate for 60 minutes at 30° C. in a shaking incubator
8. Wash 3× with TBST, add Anti-rabbit Ab/Europium conjugate (Wallac) (1:500)
9. Incubate for 60 minutes at 30° C. in a shaking incubator
10. Add 100 ul of Wallac Delfia Enhancement Solution and shake for 10 minutes.
11. Read plates in Wallac Victor model Plate Reader.
12. Collect data analyze in Excel for single point and IC50 determinations.
Typically Raf-1 assay is run at cpd concentrations from 10 μM to 30 nM in half log dilutions. (% inhibition is determined for each cpd concentration)

[1] = median, cpd concentrations from 10 μM to 30 nM in half log dilutions, read-out: Median IC50

T1 sequence (P15056 whole entry): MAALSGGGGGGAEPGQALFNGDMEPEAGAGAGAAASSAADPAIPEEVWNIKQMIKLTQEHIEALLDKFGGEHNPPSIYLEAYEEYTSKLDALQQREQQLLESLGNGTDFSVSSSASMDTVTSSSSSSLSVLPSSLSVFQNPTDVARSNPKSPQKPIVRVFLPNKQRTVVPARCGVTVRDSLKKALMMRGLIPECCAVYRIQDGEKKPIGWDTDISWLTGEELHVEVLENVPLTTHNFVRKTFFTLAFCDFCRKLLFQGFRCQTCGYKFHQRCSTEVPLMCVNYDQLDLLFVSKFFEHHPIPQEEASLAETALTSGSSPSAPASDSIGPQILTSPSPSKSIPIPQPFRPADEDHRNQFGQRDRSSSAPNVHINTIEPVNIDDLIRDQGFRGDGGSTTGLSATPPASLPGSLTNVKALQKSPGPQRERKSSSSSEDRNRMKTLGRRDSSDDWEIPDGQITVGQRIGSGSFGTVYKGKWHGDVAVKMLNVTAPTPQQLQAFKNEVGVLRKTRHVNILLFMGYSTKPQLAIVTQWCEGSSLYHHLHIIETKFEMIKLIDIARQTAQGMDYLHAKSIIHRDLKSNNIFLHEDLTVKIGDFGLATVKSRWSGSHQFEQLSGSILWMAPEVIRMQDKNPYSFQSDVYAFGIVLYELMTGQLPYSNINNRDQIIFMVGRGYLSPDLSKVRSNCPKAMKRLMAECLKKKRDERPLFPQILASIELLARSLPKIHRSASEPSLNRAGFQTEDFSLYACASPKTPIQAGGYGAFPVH

Structure (SMILES)	IC50 [1] [nM]	inhibition at 10 µM [%]	IC50 [nM]
CCOC(=O)c1cnn2c(-c3cccc(NC(=O)Nc4ccc(OC)c(Cl)c4)c3)ccnc12 [Example 81, ethyl 7-[3-({[(3-chloro-4-methoxyphenyl)amino]carbonyl}amino)phenyl]pyrazolo[1,5-a]pyrimidine-3-carboxylate]	6150	50	
Cc1cc2nccc(-c3cccc(NC(=O)c4cccc(C(F)(F)F)c4)c3)n2n1 [Example 112, N-[3-(2-methylpyrazolo[1,5-a]pyrimidin-7-yl)phenyl]-3-(trifluoromethyl)benzamide]	> 10000	26	
COCCNC(=O)c1cnn2c(-c3cccc(NC(=O)c4cccc(C(F)(F)F)c4)c3)ccnc12 [Example 45, N-(2-methoxyethyl)-7-(3-{[3-(trifluoromethyl)benzoyl]amino}phenyl)pyrazolo[1,5-a]pyrimidine-3-carboxamide]		56	
CCOC(=O)c1cnn2c(-c3cccc(NC(=O)c4cccc(Cl)c4)c3)ccnc12 [Example 70, Ethyl 7-{3-[(3-chlorobenzoyl)amino]phenyl}pyrazolo[1,5-a]pyrimidine-3-carboxylate]	> 10000	0	
O=C(Nc1cccc(-c2ccnc3cc(-c4ccncc4)nn23)c1)c1ccccc1 [Example 144, N-[3-(2-pyridin-4-ylpyrazolo[1,5-a]pyrimidin-7-yl)phenyl]benzamide]	> 10000	15	
CN(C)c1ccc(-c2cnn3c(-c4cccc(NC(=O)c5cccc(C(F)(F)F)c5)c4)ccnc23)cc1 [Example 157, N-(3-{3-[4-(dimethylamino)phenyl]pyrazolo[1,5-a]pyrimidin-7-yl}phenyl)-3-(trifluoromethyl)benzamide]		66	300
CCOC(=O)c1cnn2c(-c3cccc(NC(=O)c4ccc(Cl)c(C(F)(F)F)c4)c3)ccnc12 [Example 103, ethyl 7-(3-{[4-chloro-3-(trifluoromethyl)benzoyl]amino}phenyl)pyrazolo[1,5-a]pyrimidine-3-carboxylate]	2490	59	
CCOC(=O)c1cnn2c(-c3cccc(NC(=O)Cc4ccc(OC)c(C)c4)c3)ccnc12 [Example 101, ethyl 7-(3-{[(4-methoxy-3-methylphenyl)acetyl]amino}phenyl)pyrazolo[1,5-a]pyrimidine-3-carboxylate]	> 10000	0	
COCCCNC(=O)c1cnn2c(-c3cccc(NC(=O)Nc4ccc(Cl)c(C(F)(F)F)c4)c3)ccnc12 [Example 121, 7-{3-[({[4-chloro-3-(trifluoromethyl)phenyl]amino}carbonyl)amino]phenyl}-N-(3-methoxypropyl)pyrazolo[1,5-a]pyrimidine-3-carboxamide]	190	92	
CCOC(=O)c1cnn2c(-c3cccc(NC(=O)Nc4ccc(C(C)=O)cc4)c3)ccnc12 [Example 19, ethyl 7-[3-({[(4-acetylphenyl)amino]carbonyl}amino)phenyl]pyrazolo[1,5-a]pyrimidine-3-carboxylate]	> 10000	0	
CCOC(=O)c1cnn2c(-c3cccc(NC(=O)c4cc5ccccc5s4)c3)ccnc12 [Example 5, ethyl 7-{3-[(1-benzothien-2-ylcarbonyl)amino]phenyl}pyrazolo[1,5-a]pyrimidine-3-carboxylate]	> 20000	24	

The remaining lines, values ahead:

IC50 [1] [nM]	inhibition at 10 µM [%]	IC50 [nM]	Structure (SMILES)
> 10000	34		CCOC(=O)c1cnn2c(-c3cccc(NC(=O)Nc4nc5ccc(Cl)cc5s4)c3)ccnc12 [Example 246, ethyl7-[3-({[(6-chloro-1,3-benzothiazol-2-yl)amino]carbonyl}amino)phenyl]pyrazolo[1,5-a]pyrimidine-3-carboxylate]
	77	146	O=C(Nc1cccc(-c2ccnc3c(-c4cccc(CO)c4)cnn23)c1)c1cccc(C(F)(F)F)c1 [Example 286, N-(3-{3-[3-(hydroxymethyl)phenyl]pyrazolo[1,5-a]pyrimidin-7-yl}phenyl)-3-(trifluoromethyl)benzamide]
		393	O=C(Nc1cccc(-c2ccnc3c(-c4cnn(CCN5CCCC5)c4)cnn23)c1)c1cccc(C(F)(F)F)c1 [Example 307, N-(3-{3-[1-(2-pyrrolidin-1-ylethyl)-1H-pyrazol-4-yl]pyrazolo[1,5-a]pyrimidin-7-yl}phenyl)-3-(trifluoromethyl)benzamide]
> 10000	42		N#Cc1cccc(-c2cnn3c(-c4cccc(NC(=O)c5cccc(C(F)(F)F)c5)c4)ccnc23)c1 [Example 294, N-{3-[3-(3-cyanophenyl)pyrazolo[1,5-a]pyrimidin-7-yl]phenyl}-3-(trifluoromethyl)benzamide]
100	96		O=C(Nc1cccc(-c2ccnc3cc(N4CCOCC4)nn23)c1)Nc1ccc(Cl)c(Cl)c1 [Example 201, N-(3,4-dichlorophenyl)-N′-[3-(2-morpholin-4-ylpyrazolo[1,5-a]pyrimidin-7-yl)phenyl]urea]
440	85		O=C(Nc1cccc(-c2ccnc3c(-c4cccnc4)cnn23)c1)Nc1cccc(C(F)(F)F)c1 [Example 173, N-[3-(3-pyridin-3-ylpyrazolo[1,5-a]pyrimidin-7-yl)phenyl]-N′-[3-(trifluoromethyl)phenyl]urea]
118	83		COCC(=O)Nc1ccc(-c2cnn3c(-c4cccc(NC(=O)c5cccc(C(F)(F)F)c5)c4)ccnc23)cc1 [Example 229, N-[3-(3-{4-[(methoxyacetyl)amino]phenyl}pyrazolo[1,5-a]pyrimidin-7-yl)phenyl]-3-(trifluoromethyl)benzamide]
200	94		O=C(Nc1cccc(-c2ccnc3cc(N4CCOCC4)nn23)c1)Nc1ccc(Cl)c(C(F)(F)F)c1 [Example 200, N-[4-chloro-3-(trifluoromethyl)phenyl]-N′-[3-(2-morpholin-4-ylpyrazolo[1,5-a]pyrimidin-7-yl)phenyl]urea]
	75	1730	O=C(Nc1cccc(-c2ccnc3c(-c4ccnc(Cl)c4)cnn23)c1)c1cccc(C(F)(F)F)c1 [Example 301, N-{3-[3-(2-chloropyridin-4-yl)pyrazolo[1,5-a]pyrimidin-7-yl]phenyl}-3-(trifluoromethyl)benzamide]
	93	82.5	O=C(Nc1cccc(-c2ccnc3c(-c4ccc(CO)cc4)cnn23)c1)c1cccc(C(F)(F)F)c1 [Example 285, N-(3-{3-[4-(hydroxymethyl)phenyl]pyrazolo[1,5-a]pyrimidin-7-yl}phenyl)-3-(trifluoromethyl)benzamide]
	42		O=C1CCN(c2cc3nccc(-c4cccc(NC(=O)c5cccc(C(F)(F)F)c5)c4)n3n2)CC1 [Example 251, N-{3-[2-(4-oxopiperidin-1-yl)pyrazolo[1,5-a]pyrimidin-7-yl]phenyl}-3-(trifluoromethyl)benzamide]
> 10000	10		CCOC(=O)c1cnn2c(-c3cccc(NC(=O)Nc4cc(C)on4)c3)ccnc12 [Example 248, ethyl7-[3-({[(5-methylisoxazol-3-yl)amino]carbonyl}amino)phenyl]pyrazolo[1,5-a]pyrimidine-3-carboxylate]
169	84		COCCOCC(=O)Nc1ccc(-c2cnn3c(-c4cccc(NC(=O)c5cccc(C(F)(F)F)c5)c4)ccnc23)cc1 [Example 235, N-{3-[3-(4-{[(2-methoxyethoxy)acetyl]amino}phenyl)pyrazolo[1,5-a]pyrimidin-7-yl]phenyl}-3-(trifluoromethyl)benzamide]
	51		Cc1ccc(-c2cnn3c(-c4cccc(NC(=O)c5cccc(C(F)(F)F)c5)c4)ccnc23)cc1 [Example 160, N-{3-[3-(4-methylphenyl)pyrazolo[1,5-a]pyrimidin-7-yl]phenyl}-3-(trifluoromethyl)benzamide]
1900	56		O=C(Nc1cccc(-c2ccnc3cc(N4CCOCC4)nn23)c1)c1ccc(Cl)c(Cl)c1 [Example 198, 3,4-dichloro-N-[3-(2-morpholin-4-ylpyrazolo[1,5-a]pyrimidin-7-yl)phenyl]benzamide]
200	95		Cc1cnc2cc(-c3ccncc3)nn2c1-c1cccc(NC(=O)c2cccc(C(F)(F)F)c2)c1 [Example 177, N-[3-(6-methyl-2-pyridin-4-ylpyrazolo[1,5-a]pyrimidin-7-yl)phenyl]-3-(trifluoromethyl)benzamide]
